What was measured:
Type in all cases: in vivo
corn [1] = experiment: Example 15, Procedure II: Herbicide No. 1 + butylate (No. 10) with antidotes; conditions: for safening of corn, assessment in words: Herbicide No. 1 1.12 and 0.56 kg/ha + Herbicide No. 10 6.72 kg/ha PPI, Table 15
Experimental: (§1) Containers were filled and compacted with a fumigated silt loam top soil to a depth of about 1.3 cm from the top of the container. A first container was designated as an untreated control, a second container was designated as a herbicide control, and a third container was designated as a herbicide + antidote test container. Each of the containers was seeded with a crop species. A measured amount of herbicide dispersed or dissolved in acetone was applied to a measured quantity of soil. To this same quantity of soil treated with herbicide, there was added a measured amount of antidote dispersed or dissolved in acetone. The quantity of soil treated with the herbicide and antidote was thoroughly mixed to incorporate the herbicide and antidote in the soil uniformly. The seed bed in the third container of soil was covered with the soil treated with the herbicide and antidote and the container was leveled. For each test series, the seed beds of the first and second containers were likewise covered by soil layers. the cover layer of the first container was not treated with herbicide or antidote.
(§2) The containers were then placed on a bench in a greenhouse and sub-irrigated as required for the duration of the test. […] Plant response is measured in terms of percent injury. Antidote efficacy is indicated as the difference in plant injury by the herbicide(s) without the antidote and with the antidote.
(§3) This procedure is the same as Procedure I, but modified in the manner that after incorporation of the chemicals (herbicide and antidote) the containers with the covered seedbed were treated with an initial overhead irrigation equivalent to 0.6 cm rainfall, then subsequently sub-irrigated as required on greenhouse benches.
This example describes experiments designed to investigate the antidotal efficacy of a plurality of antidotes against the herbicidal action of a combination of Herbicide No. 1 and butylate in corn and the prevalent weeds barnyardgrass and velvetleaf. The antidotes used in these experiments were Nos. 1-10, 12, 13 and 15.
The test procedure used in these experiments was that of Procedure II described above. The antidotes were applied to a soil cover layer by pipet after spraying the herbicides onto the soil, followed by incorporation and overhead irrigation.

corn [2] = experiment: Example 19, Procedure II: Herbicide No. 1 + ERADICANE EXTRA with added antidotes; conditions: Herbicide No. 1 + ERADICANE EXTRA + added antidote, highest rates of antidotes and herbicides
Experimental: as §1, §2, §3
(§4) In the test reported in this example, the herbicidal composition was similar to that used in Example 16 in that Herbicide No. 1 was combined with EPTC (Herbicide No. 4) as a co-herbicide and the antidotes included Nos. 1, 2, 7, 13 and 15. However, in this test the EPTC was introduced as a formulation of ERADICANE (EPTC + the antidote R-25788, i.e., Antidote No. 1) at an application rate of 8.96 kg/ha. Thus, in this test two antidotes were present, viz. R-25788 and one of the auxilliary antidotes, No. 2, 13 and 15.
The test reported in this example was performed in the same manner and with the same antidotes used in Example 18, the only difference being the substitution of the commercial herbicidal product ERADICANE® EXTRA for ERADICANE®. ERADICANE EXTRA is a formulation containing both an antidote, i.e., R-29148 (Antidote No. 5 herein), and an extender, dietholate.

corn [3] = experiment: Example 18, Procedure II: Herbicide No. 1 + ERADICANE (EPTC + R-25788) with auxiliary antidotes; conditions: Herbicide No. 1 + ERADICANE 8.96 kg/ha, PPI, Table 18
Experimental: as §1, §2, §3, §4
Test procedures were those of Procedure II above.

corn [4] = experiment: Example 7, Procedure II: Herbicide No. 1 + metolachlor (No. 12) with antidotes; conditions: Herbicide No.1 0.56 + No.12 3.36 kg/ha + antidote 2.24 kg/ha
Experimental: as §1, §2, §3
In this example, Procedure II described above was followed. The data from the tests in this example is shown in Table 6 and represents averages of duplicate replications.
The tests in this example followed the same procedure and antidotes used in Example 6. However, Herbicide No. 12 (metolachlor) was used as the co-herbicide with Herbicide No. 1.

corn [5] = experiment: Example 11, Procedure II: Herbicide No. 1 + metazachlor (No. 14) with antidotes
Experimental: as §1, §2, §3
(§5) In this example, yet another α-chloroacetanilide co-herbicide, metazachlor (Herbicide No. 14) was combined with Herbicide No. 1 for investigation of the effect of various safeners on that composition. Metazachlor is the active ingredient in the commercial herbicide BUTISAN® S, used here as a 500 g/L formulation.

[6] = test system: velvetleaf (Abutilon theophrasti); experiment: as above; conditions: Herbicide No.14 3.36 kg/ha alone, no antidote
Experimental: as §1, §2, §3
(§6) In the series of greenhouse tests described below, for routine screening purposes the herbicide/antidote compositions were tested in crop/weed combinations involving corn as the crop and either or both of the weeds barnyardgrass (Echinochloa crusgalli), a monocotyledonous weed, and velvetleaf (Abutilon theophrasti), a dicotyledonous weed. In the tables below, these weeds are indicated by the symbols "BYG" and "VL", respectively.
as §5

[7] = test system: barnyardgrass (Echinochloa crusgalli); experiment: as above; conditions: Herbicide No.14 3.36 kg/ha alone, no antidote
Experimental: as §1, §2, §3, §6, §5

[8] = test system: velvetleaf (Abutilon theophrasti); experiment: Example 10, Procedure II: Herbicide No. 1 + propachlor (No. 5) with antidotes; conditions: Herbicide No.5 4.48 kg/ha alone, no antidote
Experimental: as §1, §2, §3, §6
(§7) In this test, the safening effect of various antidotes on the herbicidal combination of Herbicide No. 1 and another α-chloroacetanilide co-herbicide, propachlor, (Herbicide No. 5) was investigated. Propachlor is the active ingredient in the commercial herbicide RAMROD®. Procedure II was also used in this test as in the preceding example.

[9] = test system: barnyardgrass (Echinochloa crusgalli); experiment: as above; conditions: Herbicide No.5 4.48 kg/ha alone, no antidote
Experimental: as §1, §2, §3, §6, §7

corn [10] = experiment: as above; conditions: Herbicide No.5 4.48 kg/ha alone, no antidote
Experimental: as §1, §2, §3, §7

Question: Which “% Injury Corn” value (corn [1]; in vivo) does the source give for `CCSC(=O)N(CC(C)C)CC(C)C` [Herbicide No.10] here?
Answer: Its value is 5%.

Question: With `CC1c2ccccc2CCN1C(=O)C(Cl)Cl` (centres unmarked) [Antidote No. 12] as the compound, how does the “safening of corn, assessment in words” value (corn [1]) read?
Answer: The value was “complete protection against corn injury”.

Question: How did the “safening of corn, assessment in words” value (corn [1]) turn out when `O=C(C(Cl)Cl)N1CCCCN(C(=O)C(Cl)Cl)CCC1` [Antidote No. 8, 1,5-Diazacyclononane, 1,5-bis(dichloroacetyl)-] was run?
Answer: Its value is “complete protection against corn injury”.

Question: Which corn injury (corn [2]) does the source give for `O=C(C(Cl)Cl)N1CCOC12CCCCC2` [Antidote No. 7, 1-Oxa-4-azaspiro[4,5]decane, 4-(dichloroacetyl)-] here?
Answer: The corn injury was 25%.

Question: And the “safening of corn, assessment in words” value (corn [1])?
Answer: The value was “complete protection against corn injury”.

Question: And the “corn injury, assessment in words” value (corn [3])?
Answer: Its value is “slightly lower”.

Question: What about the “% Injury Corn” value (corn [4]) of the same compound?
Answer: The value was 20%.

Question: And the “safening of corn, assessment in words” value (corn [5]; Herbicides 1 and 14, Table 11)?
Answer: The value was “outperformed the antidotes (2 and 13) of other chemistries”.

Question: What does the source list for `Cc1cccc(C)c1N(Cn1cccn1)C(=O)CCl` [Herbicide No.14]?
Answer: % Injury VL [6]: 65%; % Injury BYG [7]: 100%; % Injury Corn (corn [5]; Herbicide No.14 3.36 kg/ha alone, no antidote): 85%

Question: Which “% Injury VL” value [8] does the source give for `CC(C)N(C(=O)CCl)c1ccccc1` [Herbicide No.5] here?
Answer: The value was 15%.

Question: And the “% Injury BYG” value [9]?
Answer: Its value is 100%.

Question: And the “% Injury Corn” value (corn [10])?
Answer: The value was 0%.

— patent EP0603240B1, “SAFENING HERBICIDAL PYRAZOLYLSULFONYLUREAS” (priority 1991, dated 1993)
